In article PMC6888270 (International Journal of Molecular Sciences, 2019):
Square brackets hold non-standard residues; d marks the D form. Peptide text beside a SMILES is read from it. Phe(4-Cl) = N[C@@H](Cc1ccc(Cl)cc1)C(=O)O; d2Nal = N[C@H](Cc1ccc2ccccc2c1)C(=O)O; d(hCit) = NC(=O)NCCCC[C@@H](N)C(=O)O; Lys(iPr) = CC(C)NCCCC[C@H](N)C(=O)O; d3Pal = N[C@H](Cc1cccnc1)C(=O)O

What was measured:
β-catenin activation = test: Immunofluorescence of active β-catenin in HEK293/GnRHR cells; assay type: cell-based, human; conditions: 1 µM GnRH + 1 µM antagonist, 1 h
Method: In order to evaluate the activation of phospho-proteins and β-catenin by Western blotting and immunofluorescence, 1 × 10^5 HEK293 cells were transiently transfected in a 24-well plate. To this purpose, 500 ng of GnRHR-HA-encoding vector diluted in 2 µL/well Lipofectamine® 2000 Transfection Reagent (Invitrogen) were used, according to the manufacturer’s instructions. Transfected HEK293 cells (HEK293/GnRHR) were cultured for 48 h and maintained over-night in serum-free medium before experiments.
3 × 10^4 HEK293/GnRHR and mock-transfected HEK293 cells (negative control) were plated on gelatine-treated slides. […] As a positive control, cells were treated for 16 h with 100 nM of the selective glycogen synthase kinase 3 (GSK3) inhibitor, CHIR99021 (Sigma-Aldrich), which stabilizes free cytosolic β-catenin [68]. After stimulations, cells were washed in PBS with Ca^2+/Mg^2+ and fixed for 20 min in paraformaldehyde 4%/PBS. Cell monolayers were washed by PBS and permeabilized using 0.1% Triton X-100. Samples were incubated in 4% bovine serum albumin (BSA)/PBS, for 1 h at room temperature (RT), before incubation with a mouse primary antibody targeting β-catenin (#05-665, 1:300 dilution in 4% BSA/PBS; Merck KGaA) overnight at 4 °C. Following washing, cells were then incubated with Cy3-conjugated anti-mouse IgG secondary antibody (#C2181, 1:200 dilution in 4% BSA/PBS; Sigma-Aldrich) for 1 h at RT. Cell monolayers were then stained for 10 min with 4′,6-diamidino-2-phenylindole (DAPI) (Sigma-Aldrich) and washed in PBS before slide treatment by polyvinyl alcohol mounting medium with 1,4-diazabicyclo[2.2.2]octane (DABCO®) (Sigma-Aldrich). Fluorescent signals were detected using the Eclipse Ni-E microscope (Nikon Instruments BV, Amsterdam, The Netherlands).

GnRH receptor (GnRHR) [1] = target: T1, GnRH receptor (GnRHR) (Homo sapiens, UniProt P30968); test: BRET measurement of GnRH-induced intracellular Ca2+ increase in HEK293/GnRHR cells; assay type: cell-based; parameters: HA (hemagglutinin); expressed in transfected cells; host or cells: HEK293 (transient co-transfection with BRET biosensor); conditions: means ± SEM, n = 6
T1 sequence (P30968 1-328): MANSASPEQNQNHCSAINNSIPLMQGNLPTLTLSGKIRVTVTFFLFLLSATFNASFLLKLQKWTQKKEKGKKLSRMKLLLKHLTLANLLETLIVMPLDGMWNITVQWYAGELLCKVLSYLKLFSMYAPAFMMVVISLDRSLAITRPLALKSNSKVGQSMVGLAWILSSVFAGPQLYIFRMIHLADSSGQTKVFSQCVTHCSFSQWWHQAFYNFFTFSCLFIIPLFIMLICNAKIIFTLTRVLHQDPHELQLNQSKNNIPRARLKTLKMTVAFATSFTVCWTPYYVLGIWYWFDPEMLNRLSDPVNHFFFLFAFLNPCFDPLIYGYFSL
Method: (§1) Different transfection protocols were followed, depending on the endpoint to be measured. For BRET experiments, 3 × 10^4 cells were transiently transfected using vectors expressing the cAMP-CAMYEL or the aequorin-Ca^2+ BRET biosensor-encoding cDNA [59], as appropriate, together with the GnRHR-HA-encoding vector. Transfections were performed in a 96-well plate using the Metafectene PRO reagent (Biontex, München, Germany), as previously described. 100 ng of the receptor-encoding vector + 100 ng of the BRET biosensor-encoding vector were used for co-transfecting HEK293 cells, while SH-SY5Y cells were co-transfected using 200 ng of the receptor-encoding vector + 100 ng of the BRET biosensor-encoding vector. 200 ng of the aequorin-Ca^2+ BRET biosensor-encoding cDNA were used for transfecting LβT2 cells. Each sample was prepared in duplicate, cultured for 48 h and serum-starved over-night before experiments.
(§2) To evaluate Ca^2+ increase, cells were incubated in Hank’s Balanced Salt Solution (HBSS) with Ca^2+ and Mg^2+, 1 mM Hepes and 5 µM Coelenterazine H (NanoLight Technologies, a division of Prolume, Ltd., Pinetop, AZ, USA), for 45 minutes, together with Cetrorelix, Ganirelix, Teverelix or vehicle, as appropriate. […] The EC50 was extrapolated from the curve obtained from each cell line. Cells treated by 5 µM of the sarco/endoplasmic reticulum Ca^2+ ATPase enzyme inhibitor, thapsigargin (Tocris Bioscience), served as positive control. Treatment by the vehicle (HBSS) was the negative control and used as a normalizer.
(§3) BRET experiments were performed using a CLARIOstar plate reader equipped by a monocromator (BMG Labtech, Ortenberg, Germany), as previously described.
(§4) Data were plotted on graphs as means ± standard error of means (SEM). The kinetics of intracellular Ca^2+ increase was represented by the BRET biosensor emission after background subtraction (vehicle). […] Data distributions were analyzed by D’Agostino and Pearson normality tests and inhibition of intracellular Ca^2+ increase by different concentrations of antagonist were compared using two-way analysis of variance (ANOVA), followed by Bonferroni post-test or Kruskal-Wallis and proper post-test. cAMP accumulation was represented as acceptor:donor emission ratio (induced BRET changes) after basal subtraction (untreated cells). Dose-response curves were obtained by data interpolation using non-linear regressions and normalized as percentage of the maximal response. EC50s, as well as half-maximal inhibitory concentrations (IC50), were compared by t-test or Mann–Whitney U test, while results obtained by Western blotting and qRT-PCR data were compared by one-way ANOVA followed by Bonferroni post-test. Statistical differences were considered as significant for p < 0.05. These analyses were performed using the GraphPad Prism software (GraphPad Software Inc., San Diego, CA, USA).

GnRH receptor (GnRHR) [2] = target: T1, GnRH receptor (GnRHR); test: BRET measurement of GnRH-induced intracellular Ca2+ increase in SH-SY5Y/GnRHR cells; assay type: cell-based; parameters: HA (hemagglutinin); expressed in transfected cells; conditions: means±SEM, n=6
Method: as §1, §2, §3, §4

Lhb gene expression = Lhb gene expression by qRT-PCR in LβT2 cells; assay type: cell-based, mouse; conditions: 1 µM GnRH + 1 µM antagonist, 24 h, n = 4
Method: LβT2 cells were seeded in 24-well plates (2 × 10^5 cells/well) and cultured for 24 h in DMEM supplemented with 10% Charcoal Stripped FBS, 4.5 g/L glucose, 100 IU/mL penicillin, 0.1 mg/mL streptomycin, and 1 mM glutamine (all from Sigma-Aldrich) before treatments. […] Samples were lysed for RNA extraction using TRIzolTM Reagent (Invitrogen) and equal amounts of total RNA were used for cDNA synthesis performed using the iScript reverse transcriptase (BioRad), as previously described. qRT-PCR was carried out in triplicates on the CFX96TM Real-Time PCR Detection System (BioRad) using the following primers pairs: [NT] for mouse Lhb; [NT] for mouse Gapdh. Primer sequences were drawn using the Mus musculus Lhb (NCBI Reference Sequence: NM_008497.2) and Gapdh (NM_008084.3) mRNAs as templates. Gene expression of Lhb was normalized to mouse Gapdh gene expression using the 2^-ΔΔCt method.

[3] = target: Hemagglutinin-tagged GnRHR (GnRHR-HA) (UniProt P30968)
[4] = target: T2, murine GnRHR (mouse (endogenous in LβT2)) (UniProt Q01776)
T2 sequence: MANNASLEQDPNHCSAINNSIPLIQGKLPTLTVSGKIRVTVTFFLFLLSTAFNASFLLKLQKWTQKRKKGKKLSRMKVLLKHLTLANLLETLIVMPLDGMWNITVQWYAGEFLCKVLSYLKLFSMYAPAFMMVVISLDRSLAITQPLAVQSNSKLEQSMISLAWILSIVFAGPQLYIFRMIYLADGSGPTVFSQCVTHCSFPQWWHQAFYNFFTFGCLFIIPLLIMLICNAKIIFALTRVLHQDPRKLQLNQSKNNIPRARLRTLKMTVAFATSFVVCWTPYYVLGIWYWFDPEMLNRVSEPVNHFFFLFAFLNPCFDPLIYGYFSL

Q: Which results are given for CC(=O)N[C@H](Cc1ccc2ccccc2c1)C(=O)N[C@@H](Cc1ccc(Cl)cc1)C(=O)N[C@H](Cc1cccnc1)C(=O)N[C@@H](CO)C(=O)N[C@H](Cc1ccc(O)cc1)C(=O)N[C@H](CCCCNC(N)=O)C(=O)N[C@@H](CC(C)C)C(=O)N[C@@H](CCCCNC(C)C)C(=O)N1CCC[C@H]1C(=O)N[C@H](C)C(N)=O [Teverelix] (Ac-[d2Nal][Phe(4-Cl)][d3Pal]S[dY][d(hCit)]L[Lys(iPr)]P[dA]-NH2)?
A: effect on GnRH-induced active β-catenin staining (β-catenin activation): did not result in any decrease of signal; AUC of the kinetics of intracellular Ca2+ response (GnRH receptor (GnRHR) [1]; 3 × EC50 GnRH + 1 pM antagonist): 85,301 ± 21,321; AUC of the kinetics of intracellular Ca2+ response (GnRH receptor (GnRHR) [1]; 3 × EC50 GnRH + 10 pM antagonist): 98,939 ± 27,373; AUC of the kinetics of intracellular Ca2+ response (GnRH receptor (GnRHR) [1]; 3 × EC50 GnRH + 100 pM antagonist): 58,864 ± 27,101; AUC of the kinetics of intracellular Ca2+ response (GnRH receptor (GnRHR) [1]; 3 × EC50 GnRH + 1 nM antagonist): 81,702 ± 18,920; AUC of the kinetics of intracellular Ca2+ response (GnRH receptor (GnRHR) [1]; 3 × EC50 GnRH + 10 nM antagonist): 74,321 ± 17,569; AUC of the kinetics of intracellular Ca2+ response (GnRH receptor (GnRHR) [1]; 3 × EC50 GnRH + 75 nM antagonist): 42,401 ± 8974; AUC of the kinetics of intracellular Ca2+ response (GnRH receptor (GnRHR) [1]; 3 × EC50 GnRH + 100 nM antagonist): 29,931 ± 8731; AUC of the kinetics of intracellular Ca2+ response (GnRH receptor (GnRHR) [1]; 3 × EC50 GnRH + 1 µM antagonist): 4107 ± 3804; AUC of the kinetics of intracellular Ca2+ response (GnRH receptor (GnRHR) [2]; 3xEC50 GnRH + 1 pM antagonist): 143555±29053; AUC of the kinetics of intracellular Ca2+ response (GnRH receptor (GnRHR) [2]; 3xEC50 GnRH + 10 pM antagonist): 128010±27347; AUC of the kinetics of intracellular Ca2+ response (GnRH receptor (GnRHR) [2]; 3xEC50 GnRH + 100 pM antagonist): 110248±22209; AUC of the kinetics of intracellular Ca2+ response (GnRH receptor (GnRHR) [2]; 3xEC50 GnRH + 1 nM antagonist): 96368±17786; AUC of the kinetics of intracellular Ca2+ response (GnRH receptor (GnRHR) [2]; 3xEC50 GnRH + 10 nM antagonist): 81812±12486; AUC of the kinetics of intracellular Ca2+ response (GnRH receptor (GnRHR) [2]; 3xEC50 GnRH + 20 nM antagonist): 38199±10646; AUC of the kinetics of intracellular Ca2+ response (GnRH receptor (GnRHR) [2]; 3xEC50 GnRH + 100 nM antagonist): 76018±13231; AUC of the kinetics of intracellular Ca2+ response (GnRH receptor (GnRHR) [2]; 3xEC50 GnRH + 1 uM antagonist): 5686±3292; effect on GnRH-induced Lhb gene expression (Lhb gene expression): inhibited

Q: Cetrorelix acetate (peptide) was tested. Which IC50 of inhibition of 3 × EC50 GnRH-induced cAMP accumulation (CAMYEL BRET), HEK293/GnRHR cells [3] did it give?
A: 0.84 nM

Q: What about the IC50 of inhibition of 3 × EC50 GnRH-induced cAMP accumulation (CAMYEL BRET), SH-SY5Y/GnRHR cells [3] of the same compound?
A: 1.56 nM

Q: For Ganirelix acetate (peptide), which IC50 of inhibition of 3 × EC50 GnRH-induced cAMP accumulation (CAMYEL BRET), HEK293/GnRHR cells [3] is on record?
A: 0.61 nM

Q: And the IC50 of inhibition of 3 × EC50 GnRH-induced cAMP accumulation (CAMYEL BRET), SH-SY5Y/GnRHR cells [3]?
A: 16.6 nM

Q: For “Gonadotropin releasing hormone (GnRH) (from UniProt P01148 24-33) (peptide)”, which EC50 of GnRH-induced intracellular Ca^2+ accumulation (BRET biosensor), LβT2 cells [4] is on record?
A: 1.8 nM

Q: Teverelix (peptide) was tested. Which IC50 of inhibition of 3 × EC50 GnRH-induced cAMP accumulation (CAMYEL BRET), HEK293/GnRHR cells [3] did it give?
A: 0.49 nM

Q: What about the IC50 of inhibition of 3 × EC50 GnRH-induced cAMP accumulation (CAMYEL BRET), SH-SY5Y/GnRHR cells [3] of the same compound?
A: 62.8 nM
